Earlier results as cited in patent publication EP2061448B1, “SUSTAINED RELEASE FORMULATION OF NALTREXONE” (Nalpropion Pharmaceuticals, Inc., priority 2006, dated 2007).
Where two headings read alike, the source gives them in different places.

What was measured:
[1] = tested on: pharmacologic effects of 25 mg of intravenously administered heroin
[2] = oral administration, immediate release form
[3] = initial 25 mg dose followed by 50 mg daily for 10 weeks

Compound | period of block of the pharmacologic effects of heroin ([1]; 50 mg of naltrexone hydrochloride, 25 mg of intravenously administered heroin) [hours] | duration of blockade ([1]; doubling the dose of naltrexone hydrochloride) [h] | duration of blockade ([1]; tripling the dose of naltrexone hydrochloride) | Tmax [2] | Moderate to severe nausea, patients [3] [%]
naltrexone hydrochloride | ≤ 24 | 48 | about 72 hours | – | –
O=C1CC[C@@]2(O)[C@H]3Cc4ccc(O)c5c4[C@@]2(CCN3CC2CC2)[C@H]1O5 [naltrexone, 17-(cyclopropylmethyl)-4,5α-epoxy-3,14-dihydroxymorphinan-6-one] | – | – | – | approximately 1 hour | 15
